Reference: US20260345596A1, “TREATMENT OF LOCALLY ADVANCED OR METASTATIC UROTHELIAL CARCINOMA WITH ERDAFINITIB” (priority 2023, published 2026)
“And” between values parts separate entries of the source, which are not always exact repeats. Equal entries are not always repeated. Marks after values point to notes of the source that are not given here.

Assay: Study BLC3001 (NCT03390504, THOR) Cohort 1: safety, adverse events, laboratory abnormalities and exposure
[1] = leading to treatment discontinuation

COc1cc(OC)cc(N(CCNC(C)C)c2ccc3ncc(-c4cnn(C)c4)nc3c2)c1 [Erdafitinib, N-(3,5-dimethoxyphenyl)-N′-(1-methylethyl)-N-[3-(1-methyl-1H-pyrazol-4-yl)quinoxalin-6-yl]ethane-1,2-diamine]
Palmar-plantar erythrodysesthesia syndrome (grade ≥3, treatment-related): 9.6% | Stomatitis (grade ≥3, treatment-related): 8.1% | Treatment-emergent adverse events that led to death (in vivo): 4.4% | Treatment-related serious adverse events (in vivo): 13.3% | Treatment-related adverse events that led to death (investigator-assessed): 0.7% | Anemia [1]: 0 no. (%) | Any patient with one or more adverse events leading to treatment discontinuation [1]: 19 (14.1) no. (%) | Atypical pneumonia [1]: 0 no. (%) | COVID-19 [1]: 1 (0.7) no. (%) | Cardiorespiratory arrest [1]: 1 (0.7) no. (%) | Detachment of retinal pigment epithelium [1]: 1 (0.7) no. (%) | Diarrhea [1]: 0 no. (%) | Dry skin [1]: 1 (0.7) no. (%) | Dysphagia [1]: 1 (0.7) no. (%) | Dyspnea [1]: 0 no. (%) | Edema peripheral [1]: 0 no. (%) | Extremity necrosis [1]: 1 (0.7) no. (%) | Febrile bone marrow aplasia [1]: 0 no. (%) | Febrile neutropenia [1]: 0 no. (%) | Fractured sacrum [1]: 0 no. (%) | Hematuria [1]: 1 (0.7) no. (%) | Hyponatremia [1]: 0 no. (%) | Hypotension [1]: 1 (0.7) no. (%) | Ileus [1]: 0 no. (%) | Keratitis [1]: 1 (0.7) no. (%) | Nail dystrophy [1]: 1 (0.7) no. (%) | Onycholysis [1]: 2 (1.5) no. (%) | Paronychia [1]: 1 (0.7) no. (%) | Peripheral sensory neuropathy [1]: 0 no. (%) | Pneumonia necrotizing [1]: 1 (0.7) no. (%) | Pneumonitis [1]: 0 no. (%) | Renal failure [1]: 1 (0.7) no. (%) | Sciatica [1]: 0 no. (%) | Septic shock [1]: 0 no. (%) | Sudden death [1]: 2 (1.5) no. (%) | Syncope [1]: 0 no. (%) | Urinary retention [1]: 1 (0.7) no. (%) | Vision blurred [1]: 1 (0.7) no. (%) | Vomiting [1]: 0 no. (%) | Adverse events leading to dose interruption (safety population): 97 (71.9) no. (%) | Adverse events leading to dose reduction (safety population): 93 (68.9) no. (%) | Adverse events of any cause (safety population): 98.5% | Any adverse events (treatment-emergent) (safety population): 133 (98.5%) no. (%) and 133 (98.5) no. (%) | COVID-19-related adverse events (safety population): 12 (8.9) no. (%) | COVID-19-related serious adverse events (safety population): 1 (0.7) no. (%) | Grade 3-4 serious adverse events (safety population): 52 (38.5) no. (%) | Grade 3-4 treatment-related adverse events (safety population): 45.9% | Related adverse events (≥1 treatment-related AE, any grade) (safety population): 131 (97.0) no. (%) | Related adverse events leading to death (safety population): 1 (0.7) no. (%) | Related adverse events leading to dose interruption (safety population): 89 (65.9) no. (%) | Related adverse events leading to dose reduction (safety population): 89 (65.9) no. (%) | Related adverse events leading to treatment discontinuation (safety population): 11 (8.1%)^b no. (%) and 11 (8.1) no. (%) | Related grade 3-4 adverse events (safety population): 62 (45.9) no. (%) | Related grade 3-4 serious adverse events (safety population): 16 (11.9) no. (%) | Related serious adverse events (safety population): 18 (13.3) no. (%) | Adverse events leading to death (treatment-emergent): 6 (4.4%) no. (%) and 6 (4.4) no. (%) | Grade 3-4 adverse events (treatment-emergent): 85 (63.0%) no. (%) and 85 (63.0) no. (%) | Serious adverse events (treatment-emergent): 56 (41.5%) no. (%) and 56 (41.5) no. (%) | Clinically important TEAEs (treatment-emergent, any grade): 125 (92.6%) n (%) | Eye disorders leading to discontinuation (treatment-related AEs): ^bMost frequent treatment-related AEs leading to discontinuation of erdafitinib included eye disorders (3 patients) and skin and subcutaneous disorders (3 patients). | Diarrhea (treatment-related, any grade): 74 (54.8) n (%) | Dry mouth (treatment-related, any grade): 52 (38.5) n (%) | Hyperphosphatemia (treatment-related, any grade): 106 (78.5) n (%) | Onycholysis (treatment-related, any grade): 31 (23.0) n (%) | PPE syndrome (treatment-related, any grade): 41 (30.4) n (%) | Stomatitis (treatment-related, any grade): 62 (45.9) n (%) | Diarrhea (treatment-related, grade 3-4): 4 (3.0) n (%) | Dry mouth (treatment-related, grade 3-4): 0 n (%) | Hyperphosphatemia (treatment-related, grade 3-4): 7 (5.2) n (%) | Onycholysis (treatment-related, grade 3-4): 8 (5.9) n (%) | PPE syndrome (treatment-related, grade 3-4): 13 (9.6) n (%) | Stomatitis (treatment-related, grade 3-4): 11 (8.1) n (%) | Lowering of discontinuation due to treatment-related adverse events (versus chemotherapy): about 5.3%
